Experimental data taken from publication PMC6423129, “Activity and structural analysis of GRL-117C: a novel small molecule CCR5 inhibitor active against R5-tropic HIV-1s” (Scientific Reports, 2019).
Structures can show the parent of a compound that is named as a salt. Where two headings read alike, the source gives them in different places.

Columns and labels:
CC1/85 cl.6 = assay: Anti-HIV-1 assay, drug-naive clinical strain CC1/85 cl.6; assay type: cell-based; conditions: Human immunodeficiency virus 1
Experimental: (§1) MAGI-CCR5 cells[18] were maintained in DMEM supplemented with 10% fetal calf serum (FCS: Gemini Bio-Products, West Sacramento, CA), 200 μg/ml G418, 100 μg/ml hygromycin B, and 100 μg/ml zeomycin. The Chinese hamster ovary (CHO) cells expressing CCR5[19] were maintained in Ham’s F-12 medium (GIBCO-BRL, Rockville, MD) supplemented with 10% FCS, 50 U/ml penicillin, and 50 μg/ml streptomycin in the presence of 5 μg/ml blasticidin S hydrochloride. TZM-bl cells were obtained from the NIH AIDS Reagent Program, and were cultured in DMEM with 10% FCS. Peripheral blood mononuclear cells (PBMCs) were isolated from buffy coats of HIV-1 seronegative individuals, and were activated with 10 μg/ml phytohemagglutinin (PHA) prior to use[16]. A laboratory wild-type R5-HIV-1 strain (HIV-1Ba-L)[37] was employed for drug susceptibility assays. AD101 (experimental CCR5 inhibitor) and VVC-resistant HIV clones[7],[8] were provided by Dr. John P. Moore of Cornell University for this study. The clones were propagated with activated PBMCs, and were used for the assays. A clinical HIV-1 strain, HIV-1KP-5pc, and an MVC-resistant isolate, HIV-1KP-5mvcR, were prepared and used for antiviral assays, as previously described[10],[38]. The following reagents (plasmids) for T/F HIV-1 viruses[22],[24] were obtained through the NIH AIDS Reagent Program, Division of AIDS, NIAID, NIH: pCH040.c/2625 (cat# 11740), pCH106.c/2633 (cat# 11743), pTHRO.c/2626 (cat# 11745), and pCH058.c/2960 (cat# 11856), from Dr. John Kappes and Dr. Christina Ochsenbauer.
(§2) Antiviral assays using PHA-PBMCs (p24 assay) were conducted as previously reported[16],[38]. In brief, PHA-PBMCs (1 × 10^6/ml) were exposed to 50 TCID50 of HIV-1Ba-L or drug-resistant HIV-1 infectious clones in the presence or absence of various concentrations of drugs; 10-fold serial dilutions were performed in 96-well microculture plates. The amount of p24 antigens produced by the cells was determined on day 7 in the culture via a commercially available ELISA kit (PerkinElmer). The p24 production level in drug-free control cell cultures was used as the reference. […] Antiviral assays using MAGI-CCR5 cells (MAGI assay) were conducted as previously reported[16],[39]. Single-round virus infection assays using TZM-bl cells infected with R5-HIV-1s (HIV-1YU2, HIV-1KP-5pc, and HIV-1KP-5mvcR)[10] were also conducted as previously described.

pCH040.c/2625 = assay: MAGI assay, T/F HIV-1 clone pCH040.c/2625; assay type: cell-based; conditions: Human immunodeficiency virus 1, MAGI
Text: (§3) We also examined the activity of GRL-compounds against Transmitter/founder (T/F) HIV-1 viruses. T/F viruses are involved in the initial infection. It is considered that T/F viruses virtually always use CCR5 rather than CXCR4 and infect T cells but not macrophages because […] of CD4 is needed to mediate virus entry for the initial transmission[20]–[24]. […] We obtained four HIV-1 T/F infectious clones. We determined the antiviral activity of GRL-117C, GRL-10007C and GRL-10018C on these HIV-1 clones using MAGI assay.
as §1, with “A clinical HIV-1 strain, HIV-1KP-5pc, and an MVC-resistant isolate, HIV-1KP-5mvcR, were prepared and used for antiviral assays, as previously described[10],[38].” left out
as §2

R5-HIV-1Ba-L = assay: MAGI assay using MAGI/CCR5 cells and R5-HIV-1Ba-L; assay type: cell-based; conditions: Human immunodeficiency virus 1, BAL, Ba-L (MAGI)
Experimental: as §1, §2

pTHRO.c/2626 = assay: MAGI assay, T/F HIV-1 clone pTHRO.c/2626; assay type: cell-based; conditions: Human immunodeficiency virus 1, MAGI
Text: as §3
as §1, with “A clinical HIV-1 strain, HIV-1KP-5pc, and an MVC-resistant isolate, HIV-1KP-5mvcR, were prepared and used for antiviral assays, as previously described[10],[38].” left out
as §2

CC1/85 cl.7 = assay: Anti-HIV-1 assay, drug-naive clinical strain CC1/85 cl.7; assay type: cell-based; conditions: Human immunodeficiency virus 1
Experimental: as §1, §2

[1] = test system: CC101.19 cl.7 (AD101 resistant); assay: microbe, parasite or virus in culture; assay type: cell-based, HIV-1; conditions: for IC90: Human immunodeficiency virus 1; for IC50: Human immunodeficiency virus 1, CC101.19 cl.7 (AD101 resistant)
Experimental: as §1, §2

[2] = test system: D1/85.16 cl.23 (VVC resistant); assay: microbe, parasite or virus in culture; assay type: cell-based, HIV-1; conditions: for IC90: Human immunodeficiency virus 1; for IC50: Human immunodeficiency virus 1, D1/85.16 cl.23 (VVC resistant)
Experimental: as §1, §2

pCH0.6.c/2633 = assay: MAGI assay, T/F HIV-1 clone pCH0.6.c/2633; assay type: cell-based; conditions: Human immunodeficiency virus 1, MAGI
Text: as §3
as §1, with “A clinical HIV-1 strain, HIV-1KP-5pc, and an MVC-resistant isolate, HIV-1KP-5mvcR, were prepared and used for antiviral assays, as previously described[10],[38].” left out
as §2

pCH058.c/2960 = assay: MAGI assay, T/F HIV-1 clone pCH058.c/2960; assay type: cell-based; conditions: Human immunodeficiency virus 1, MAGI
Text: as §3
as §1, with “A clinical HIV-1 strain, HIV-1KP-5pc, and an MVC-resistant isolate, HIV-1KP-5mvcR, were prepared and used for antiviral assays, as previously described[10],[38].” left out
as §2

R5-HIV-1BaL = assay: p24 assay using PBMCs and R5-HIV-1BaL; assay type: cell-based; conditions: Human immunodeficiency virus 1, BAL, PBMC, 168 h, Ba-L (PBMCs), day 7
Experimental: as §1, §2

HIV-1YU2 = assay: TZM-bl single-round infection assay, HIV-1YU2; assay type: cell-based; conditions: Human immunodeficiency virus 1, YU2, drug-sensitive, mean ± SD
Experimental: as §1, §2

HIV-1KP-5mvcR = assay: TZM-bl single-round infection assay, MVC-resistant HIV-1KP-5mvcR; assay type: cell-based
Experimental: as §1, §2

HIV-1KP-5pc = assay: TZM-bl single-round infection assay, HIV-1KP-5pc; assay type: cell-based; conditions: for IC50: KP-5pc, drug-sensitive clinical strain, TZM-bl assay, mean ± SD
Experimental: as §1, §2

CCR5 [3] = molecular target: T1, CCR5 (Homo sapiens, UniProt P51681); assay: Inhibition of 125I-MIP-1β binding to CCR5 (CCR5+ CHO cells)
T1 construct: expressed in transfected cells; host or cells: Chinese hamster ovary (CHO) cells expressing CCR5
Experimental: (§4) In order to determine whether GRL derivatives block the binding of CC-chemokines to CCR5, we conducted a CC-chemokine binding inhibition assay using ^125I-labeled CC-chemokines (^125I-RANTES, ^125I-MIP-1α, and ^125I-MIP-1β) and CCR5 expressing cells.
(§5) CCR5^+ CHO cells were incubated with (A) ^125I-MIP-1α, (B) ^125I-MIP-1β, and (C) ^125I-RANTES (200 ng/ml) in the presence or absence of varying concentrations of CCR5 inhibitors. Data are shown as means ± s.d. of three independent experiments.
(§6) The inhibition of the binding of ^125I-labeled CC-chemokines ([^125I] RANTES, [^125I] MIP-1α, or [^125I] MIP-1β) to CCR5 by various CCR5 inhibitors was measured as previously described. Calcium flux inhibition assays were also performed with CCR5 inhibitors, and were carried out with the Fluo-4 Direct^TM calcium reagent (Invitrogen); assays were conducted as previously described with minor modifications. In brief, CHO-CCR5 cells (5 × 10^5 cells) were exposed to Fluo-4 Direct^TM calcium reagent for 60 min at 37 °C in RPMI containing 5% FCS. Cells were then incubated with the test compound for 30 min at varying concentrations. Subsequently, cells were exposed to either MIP-1α, MIP-1β, or RANTES at 200 ng/ml. Relative increases in cytosolic Ca^2+ levels after chemokine exposure were determined with flow cytometry (FACSCalibur, BD Biosciences), and IC50 values of cytosolic Ca^2+ mobilization (Ca^2+ flux) were compared with the Ca^2+ flux level in drug-free control samples.

CCR5 [4] = molecular target: T1, CCR5; assay: Inhibition of 125I-RANTES binding to CCR5 (CCR5+ CHO cells)
Experimental: as §4, §5, §6

CCR5 [5] = molecular target: T1, CCR5; assay: Inhibition of 125I-MIP-1α binding to CCR5 (CCR5+ CHO cells)
Experimental: as §4, §5, §6

[6] = Human immunodeficiency virus 1, TZM-bl

T1 sequence (P51681 whole entry): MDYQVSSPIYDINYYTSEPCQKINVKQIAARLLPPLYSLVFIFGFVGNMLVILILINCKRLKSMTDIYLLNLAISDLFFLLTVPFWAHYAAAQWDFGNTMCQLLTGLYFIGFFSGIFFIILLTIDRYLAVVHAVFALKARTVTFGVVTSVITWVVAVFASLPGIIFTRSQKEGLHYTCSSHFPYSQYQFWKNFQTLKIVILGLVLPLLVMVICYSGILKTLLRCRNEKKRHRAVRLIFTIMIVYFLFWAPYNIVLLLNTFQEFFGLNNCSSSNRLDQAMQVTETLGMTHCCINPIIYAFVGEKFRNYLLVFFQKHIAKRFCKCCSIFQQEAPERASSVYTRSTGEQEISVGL

Row | Structure (SMILES) | IC50 (pCH040.c/2625) [nM] | IC50 (R5-HIV-1Ba-L) [nM] | IC90 (R5-HIV-1Ba-L) [nM] | IC50 (pTHRO.c/2626) [nM] | IC50 (CC1/85 cl.7) [nM] | IC90 (CC1/85 cl.7) [nM] | IC90 [1] [nM] | IC50 [1] [nM] | IC90 [2] [nM] | IC50 [2] [nM] | IC50 (pCH0.6.c/2633) [nM] | IC50 (pCH058.c/2960) [nM] | IC50 (R5-HIV-1BaL) [nM] | IC90 (R5-HIV-1BaL) [nM] | other results
1 | CCCCN1C(=O)[C@@H]([C@H](O)C2CCCCC2)NC(=O)C12CCN(Cc1ccc(Oc3ccc(C(=O)O)cc3)cc1)CC2 [APL, 4-[4-[(3 R)-1-butyl-3-[(1 R)cyclohexylhydroxymethyl]-2,5-dioxo-1,4,9-triazaspiro [5.5]undec-9 ylmethyl]phenoxy] benzoic acid hydrochloride] | 0.7 ± 0.2 | 0.2 | 4.9 | 0.9 ± 0.1 | 1.8 | 11.3 | 200 | 16.3 | 98.6 | 8.6 | 1.9 ± 0.2 | 1.7 ± 0.2 | 2.6 | 13.4 | IC50 (CC1/85 cl.6; CC1/85 cl.6, drug naive R5-HIV-1 clinical strain, read-out: IC50): 1.5 nM
2 | CCCCOCCOc1ccc(-c2ccc3c(c2)/C=C(/C(=O)Nc2ccc([S@@+]([O-])Cc4cncn4CCC)cc2)CCCN3CC(C)C)cc1 [CVC, cenicriviroc] |  |  |  |  |  |  |  |  |  |  |  |  |  |  | IC50 (HIV-1YU2): 1.1 ± 0.7 nM; IC90 (HIV-1YU2): 6.2 nM; IC50 (HIV-1KP-5mvcR; [6]): 260 ± 352 nM; IC90 (HIV-1KP-5mvcR; [6]): > 300 nM; fold change of IC50 values between HIV-1KP-5pc (wild type) and HIV-1KP-5mvcR (HIV-1KP-5mvcR; KP-5mvcR vs KP-5pc / wild type): 63 fold; IC90 (HIV-1KP-5pc; [6]): 105 nM; IC50 (HIV-1KP-5pc; [6]): 4.1 nM; IC50 (HIV-1KP-5pc): 4.9 ± 2.2 nM
3 | Cc1cccc(C)c1C(=O)N1C2CCC1CC(N1CCN(C(C)c3ccc(C(F)(F)F)cc3)C(C)C1)C2 (stereo not shown) [GRL-10007C] | 3.1 ± 0.3 | 1.4 | 9.5 | 3.2 ± 0.4 | 15.8 | 80.3 | 472 | 41.1 | 536 | 56.9 | 5.3 ± 3.4 | 6.1 ± 3.2 | 16.9 | 126 | IC50 (CC1/85 cl.6): 12.5 nM; EC50 (CCR5 [3]): 2.5 nM; EC50 (CCR5 [4]): 628 nM; binding of 125I-RANTES remaining (CCR5 [4]; in the presence of 1 μM compound): more than 40%; EC50 (CCR5 [5]): 1.1 nM; activity against MVC-resistant HIV-1 (HIV-1KP-5mvcR) (HIV-1KP-5mvcR; in words, data not shown): failed to demonstrate activity
